# Values quoted from earlier work in patent US20050085446A1, “Fluoroquinolone formulations and methods of making and using the same” (priority 2003, published 2005).
# Like-named read-outs stand apart in the source and are kept apart here.
# System: bacterial strains
Molecule,MIC90 (generally around),MIC90 [μg/gm]
"O=C(O)c1cn(C2CC2)c2cc(N3CCNCC3)c(F)cc2c1=O [ciprofloxacin, 1-cyclopropyl-6-fluoro-1,4-dihydro-4-oxo-7-(1-piperazinyl)-3-quinolinecarboxylic acid]",around 0.5 μg/g,–
gentamicin,–,10
